Experimental data taken from patent US20090298868A1, “QUINOLINE COMPOUNDS AS MELANOGENESIS MODIFIERS AND USES THEREOF” (priority 2007, published 2009).
Where a name gives a salt, the structure may show the parent alone. Read-outs that look alike come from different tables or passages of the source. Each block holds one molecule with its values, some of them ahead of it.

System: cultured murine melanocytes (melan-a)
Assay: Melanin assay in cultured murine melanocytes (melan-a)
Assay type: cell-based
Conditions: for inhibition at 1 µM / inhibition at 5 µM / IC50: Mus musculus; for inhibition at 1 µM / inhibition at 5 µM: 72 h; for inhibition at 1 µM: read-out: % Inh. @ 1 μM; for inhibition at 5 µM: read-out: % Inh. @ 5 μM
Procedure: The Spectrum Collection library consisting of 2000 drug compounds or natural products was screened to identify novel pigmentation inhibitors or stimulators in cultured murine melanocytes (melan-a). Compounds were dissolved in dimethylsulfoxide (DMSO) to a final concentration of 10 mM. Screening was performed with cultured melanocytes in 24-well plates followed by melanin assay (see below). A minimum change of 50% in melanin formation was established as significant for a pigmentation inhibitor or stimulator. DMSO was used as a negative control and the widely used depigmenting agent, hydroquinone, was used as a positive control on every plate. Primary screening was performed at a final concentration of 1 μM and potential candidates from the primary screening were reconfirmed in duplicate at final concentrations of 1 and 5 μM.
Melan-a cells were plated at 5×10^4 cells per well in 1 ml of culture media in 24-well plates the day before adding the library compounds. All compounds were added at the indicated final concentrations. Cells were harvested after 72 hours of incubation, and melanin assay was performed.
The hits identified herein were purchased from Sigma (St Louis, Mo.). […] These compounds were dissolved in dimethylsulfoxide (DMSO) to a final concentration of 10 mM, and were tested for their effect on melanin synthesis at the indicated final concentrations.
For the primary and secondary screening, cells were harvested and dissolved in 200 μL of 2N NaOH in 20% DMSO at 70° C. A 180-μl aliquot of the resulting solution was measured for absorbance at 490 nm.
The lysates were centrifuged at 14,000 rpm for 10 minutes at 4° C. BCA protein assay kit (Pierce) was used to measure the protein concentrations of the supernatants, and bovine serum albumin was used as a standard. The remaining pellets were incubated with 100 μl ethanol-ether (1:1) for 10 minutes at room temperature. After removing the ethanol-ether, the pellets were dissolved in 200 μL of 2N NaOH in 20% DMSO at 70° C. A 180-μL aliquot of the resulting solution was measured for absorbance at 490 nm. The melanin contents were normalized to the total amount of protein.

[1] = Melan-a, melanin formation, melan-a cells, 1 μM compound, 72 hours incubation
[2] = Melan-a, melanin formation, melan-a cells, 5 μM compound, 72 hours incubation
[3] = inhibition of melanin synthesis, melan-a cells, read-out: IC50
[4] = melanin formation, melan-a cells, 1 μM compound, 72 hours incubation
[5] = melanin formation, melan-a cells, 5 μM compound, 72 hours incubation

Molecule: C=C[C@H]1C[N@]2CC[C@H]1C[C@H]2[C@H](O)c1ccnc2ccccc12 [ID 9, Cinchonidine]
- inhibition at 1 µM [1]: 25%
- inhibition at 5 µM [2]: 35.7%
- IC50 [3]: 10900 ± 220 nM

Molecule: CC[C@H]1CN2CCC1CC2[C@@H](OC(=O)c1ccc(Cl)cc1)c1ccnc2ccc(OC)cc12 (some centres unmarked) [ID 22, Hydroquinidine 4-chlorobenzoate]
- inhibition at 1 µM [1]: 10%
- inhibition at 5 µM [2]: 25.5%

Molecule: C=C[C@H]1C[N@@]2CCC1C[C@H]2[C@H](O)c1ccnc2ccc(OC)cc12 [ID 13, Quinine Salicylate]
- inhibition at 1 µM [1]: 33%
- inhibition at 5 µM [2]: 60%

Molecule: CC[C@H]1CN2CCC1CC2C(O)c1ccnc2ccc(OC)cc12 (some centres unmarked) [ID 18, Hydroquinine]
- inhibition at 1 µM [1]: 37.3%
- inhibition at 5 µM [2]: 71.7%

- IC50 [3]: 2000 ± 150 nM
Molecule: OC(c1cc(C(F)(F)F)nc2c(C(F)(F)F)cccc12)C1CCCCN1 (centres unmarked) [ID 11, Mefloquine]
- inhibition at 1 µM [1]: 10%
- inhibition at 5 µM [2]: 75%

Molecule: (−)-3-Hydroxybutyric acid, quinine salt [ID 15]
- % Inh. @ 1 μM [4]: 34.4%
- % Inh. @ 5 μM [5]: 63.9%

Molecule: C=C[C@H]1C[N@]2CC[C@H]1C[C@@H]2[C@@H](O)c1ccnc2ccc(OC)cc12 [ID 6, Quinidine Gluconate]
- IC50 (Melan-a): 2700 ± 140 nM
- inhibition at 1 µM (Melan-a): 41%
- inhibition at 5 µM (Melan-a): 58%

Molecule: C=CC1CN2CCC1CC2[C@H](O)c1ccnc2ccc(OC)cc12 (some centres unmarked) [ID 16, Quinine hydrobromide]
- inhibition at 1 µM [1]: 30.1%
- inhibition at 5 µM [2]: 63.9%

- IC50 (μM) (inhibition of melanin synthesis, melan-a cells): active
Molecule: CC[C@H]1CN2CCC1C[C@@H]2[C@@H](O)c1ccnc2ccc(OC)cc12 (some centres unmarked) [ID 8, Hydroquinidine]
- inhibition at 1 µM [1]: 30.9%
- inhibition at 5 µM [2]: 52.3%

Molecule: C=C[C@H]1C[N+]2(Cc3ccccc3)CC[C@H]1C[C@H]2[C@H](O)c1ccnc2ccccc12.[Cl-] [ID 21, N- Benzylcinchonidinium chloride]
- % Inh. @ 1 μM [4]: 9.6%
- % Inh. @ 5 μM [5]: 16.4%

Molecule: C=C[C@H]1C[N@]2CC[C@H]1C[C@@H]2[C@@H](OC(=O)OCC)c1ccnc2ccc(OC)cc12 [ID 5, Quinine Ethyl Carbonate]
- IC50 (Melan-a): 5100 ± 120 nM
- inhibition at 1 µM (Melan-a): 15%
- inhibition at 5 µM (Melan-a): 49%

Molecule: COc1cc(NC(C)CCCN)c2ncccc2c1 (centres unmarked) [ID 3, Primaquine Diphosphate]
- IC50 (Melan-a): 6800 ± 370 nM
- inhibition at 1 µM (Melan-a): 30%
- inhibition at 5 µM (Melan-a): 47%

Molecule: C=C[C@H]1C[N@@]2CCC1C[C@H]2[C@H](O)c1ccnc2ccc(OC)cc12 (single isomer, unassigned; (+)) [ID 14, (+)-3-Hydroxybutyric acid, quinine salt]
- % Inh. @ 1 μM (melanin formation, melan-a cells, 1 μM compound, 72 hours incubation, 1 µM): 32.6%
- % Inh. @ 5 μM (melanin formation, melan-a cells, 5 μM compound, 72 hours incubation, 5 µM): 61.3%

- IC50 [3]: 10200 ± 280 nM
Molecule: CCCCOc1cc(C(=O)NCCN(CC)CC)c2ccccc2n1 [ID 4, Dibucaine Hydrochloride]

Molecule: C=C[C@H]1CN2CCC1CC2C(O)c1ccnc2ccc(OC)cc12 (some centres unmarked) [ID 12, Quinine]
- inhibition at 1 µM [1]: 42.6%
- inhibition at 5 µM [2]: 70.9%

Molecule: C=C[C@H]1CN2CCC1CC2[C@@H](O)c1ccnc2ccc(OC)cc12 (some centres unmarked) [ID 17, Quinine hydrochloride dihydrate]
- inhibition at 1 µM [1]: 27.5%
- inhibition at 5 µM [2]: 61.5%

- IC50 [3]: 2600 ± 150 nM
Molecule: CCN(CC)Cc1ccc(Nc2ccnc3cc(Cl)ccc23)cc1O [ID 1, Amodiaquine Dihydrochloride]
- inhibition at 1 µM [1]: 21%
- inhibition at 5 µM [2]: 79%

Molecule: C=C[C@H]1C[N@]2CC[C@H]1C[C@@H]2[C@H](O)c1ccnc2ccccc12 [ID 10, Cinchonine]
- inhibition at 1 µM [1]: 18%
- inhibition at 5 µM [2]: 30%
- IC50 [3]: > 20000 nM

Molecule: C=C[C@H]1C[N@]2CC[C@H]1C[C@@H]2C(O)c1ccnc2ccc(OC)cc12 (some centres unmarked) [ID 7, Quinine Sulfate]
- IC50 (Melan-a): 1500 ± 190 nM
- inhibition at 1 µM (Melan-a): 31%
- inhibition at 5 µM (Melan-a): 58%

Molecule: CCN(CC)CCCC(C)Nc1ccnc2cc(Cl)ccc12 (centres unmarked) [ID 2, Chloroquine Diphosphate]
- IC50 (Melan-a): 700 ± 180 nM
- inhibition at 1 µM (Melan-a): 62%
- inhibition at 5 µM (Melan-a): 70%

Molecule: CC[C@H]1CN2CCC1CC2[C@@H](O)c1ccnc2ccccc12 (some centres unmarked) [ID 20, Hydrocinchonine]
- inhibition at 1 µM (Melan-a): 24%
- inhibition at 5 µM (Melan-a): 37.3%

Molecule: CC[C@H]1C[N@@]2CCC1C[C@H]2[C@H](O)c1ccnc2ccc(OC)cc12 [ID 19, Hydroquinine hydrobromide hydrate]
- inhibition at 1 µM [1]: 26.8%
- inhibition at 5 µM [2]: 67.4%
